# Where “and” joins values, the source holds several entries; their conditions need not be identical. Identical values can stand only once.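 Dose response: 5 concentrations. Exposure: 48 h. Format: 96-well plates. Endpoint: linear interpolation; highest concentration if not reached. GI50 = concentration required for 50% inhibition of growth. At the TGI there is no net growth.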
# Experiments:
# Experiment in all cases: growth of human tumour cells (NCI), 48 h
# U251 CNS = system: U251 CNS
# BT-549 breast = system: BT-549 breast
# SF-539 CNS = system: SF-539 CNS
# MDA-MB-435 = system: MDA-MB-435
# CCRF-CEM leukemia = system: CCRF-CEM leukemia
# RXF 393 renal = system: RXF 393 renal
# MOLT-4 leukemia = system: MOLT-4 leukemia
# RPMI-8226 leukemia = system: RPMI-8226 leukemia
# MCF7 breast = system: MCF7 breast
# MALME-3M melanoma = system: MALME-3M melanoma
# HOP-62 NSCLC = system: HOP-62 NSCLC
# HOP-92 NSCLC = system: HOP-92 NSCLC
# ACHN renal = system: ACHN renal
# SF-268 CNS = system: SF-268 CNS
# UO-31 renal = system: UO-31 renal
# M14 melanoma = system: M14 melanoma
# NCI-H23 lung = system: NCI-H23 lung
# SK-MEL-2 melanoma = system: SK-MEL-2 melanoma
# SN12C renal = system: SN12C renal
# HL-60(TB) leukemia = system: HL-60(TB) leukemia
# UACC-62 melanoma = system: UACC-62 melanoma
# A549 NSCLC = system: A549 NSCLC
# HCC-2998 colon = system: HCC-2998 colon
# T-47D breast = system: T-47D breast
# OVCAR-3 ovarian = system: OVCAR-3 ovarian
# SK-MEL-5 melanoma = system: SK-MEL-5 melanoma
# SF-295 CNS = system: SF-295 CNS
# SK-MEL-28 melanoma = system: SK-MEL-28 melanoma
# HCT-15 colon = system: HCT-15 colon
# 786-0 renal = system: 786-0 renal
# DU-145 prostate = system: DU-145 prostate
# SW-620 colon = system: SW-620 colon
# K-562 leukemia = system: K-562 leukemia
# COLO 205 colon = system: COLO 205 colon
# NCI-H522 lung = system: NCI-H522 lung
# NCI-H460 lung = system: NCI-H460 lung
# MDA-MB-231 breast = system: MDA-MB-231 breast
# SNB-75 CNS = system: SNB-75 CNS
# OVCAR-8 ovarian = system: OVCAR-8 ovarian
# HS 578T breast = system: HS 578T breast
# KM12 colon = system: KM12 colon
# NCI-H226 lung = system: NCI-H226 lung
# OVCAR-4 ovarian = system: OVCAR-4 ovarian
# IGROV1 ovarian = system: IGROV1 ovarian
# MDA-N = system: MDA-N
# HT29 colon = system: HT29 colon
# LOX IMVI melanoma = system: LOX IMVI melanoma
# SR leukemia = system: SR leukemia
# SNB-19 CNS = system: SNB-19 CNS
# TK-10 renal = system: TK-10 renal
# HCT-116 colon = system: HCT-116 colon
# OVCAR-5 ovarian = system: OVCAR-5 ovarian
# NCI/ADR-RES ovarian = system: NCI/ADR-RES ovarian
# CAKI-1 renal = system: CAKI-1 renal
# EKVX NSCLC = system: EKVX NSCLC
# PC-3 prostate = system: PC-3 prostate
# A498 renal = system: A498 renal
# SK-OV-3 ovarian = system: SK-OV-3 ovarian
# UACC-257 melanoma = system: UACC-257 melanoma
smiles,measurement,setting,value
COc1ccccc1CNCCCCCNCCCCCCCCCCNCCCCCNCc1ccccc1OC,TGI,U251 CNS,32.9 µM
same,TGI,BT-549 breast,45.5 µM
same,TGI,SF-539 CNS,21.2 µM
same,TGI,MDA-MB-435,> 100 µM
same,TGI,CCRF-CEM leukemia,32.4 µM
same,TGI,RXF 393 renal,96.3 µM
same,TGI,MOLT-4 leukemia,26.5 µM
same,TGI,RPMI-8226 leukemia,> 100 µM
same,TGI,MCF7 breast,32.7 µM
same,TGI,MALME-3M melanoma,61.3 µM
same,TGI,HOP-62 NSCLC,31.8 µM
same,TGI,HOP-92 NSCLC,> 100 µM
same,TGI,ACHN renal,> 100 µM
same,TGI,SF-268 CNS,> 100 µM
same,TGI,UO-31 renal,> 100 µM
same,TGI,M14 melanoma,> 100 µM
same,TGI,NCI-H23 lung,> 100 µM
same,TGI,SK-MEL-2 melanoma,34.7 µM
same,TGI,SN12C renal,79.6 µM
same,TGI,HL-60(TB) leukemia,43.7 µM
same,TGI,UACC-62 melanoma,> 100 µM
same,TGI,A549 NSCLC,58.8 µM
same,TGI,HCC-2998 colon,39.2 µM
same,TGI,T-47D breast,> 100 µM
same,TGI,OVCAR-3 ovarian,> 100 µM
same,TGI,SK-MEL-5 melanoma,> 100 µM
same,TGI,SF-295 CNS,> 100 µM
same,TGI,SK-MEL-28 melanoma,> 100 µM
same,TGI,HCT-15 colon,> 100 µM
same,TGI,786-0 renal,42.1 µM
same,TGI,DU-145 prostate,33.5 µM
same,TGI,SW-620 colon,> 100 µM
same,TGI,K-562 leukemia,31.7 µM
same,TGI,COLO 205 colon,> 100 µM
same,TGI,NCI-H522 lung,42.2 µM
same,TGI,NCI-H460 lung,26.8 µM
same,TGI,MDA-MB-231 breast,31.6 µM
same,TGI,SNB-75 CNS,70.3 µM
same,TGI,OVCAR-8 ovarian,77.7 µM
same,TGI,HS 578T breast,5.78 µM
same,TGI,KM12 colon,58.4 µM
same,TGI,NCI-H226 lung,34.3 µM
same,TGI,OVCAR-4 ovarian,> 100 µM
same,TGI,IGROV1 ovarian,45 µM
same,TGI,MDA-N,34.5 µM
same,TGI,HT29 colon,> 100 µM
same,TGI,LOX IMVI melanoma,30.3 µM
same,TGI,SR leukemia,32.2 µM
same,TGI,SNB-19 CNS,> 100 µM
same,TGI,TK-10 renal,> 100 µM
same,TGI,HCT-116 colon,24.1 µM
CC(C)NCCCNc1c2ccccc2nc2cccc([N+](=O)[O-])c12,TGI,U251 CNS,0.119 µM and 0.0496 µM
same,GI50,BT-549 breast,0.0222 µM
same,TGI,BT-549 breast,0.157 µM and 0.0599 µM
same,GI50,SF-539 CNS,0.0142 µM
same,TGI,SF-539 CNS,0.228 µM and 0.0409 µM
same,TGI,MDA-MB-435,0.0225 µM and 0.0186 µM
same,GI50,CCRF-CEM leukemia,0.0118 µM
same,TGI,CCRF-CEM leukemia,0.0854 µM and 0.0644 µM
same,TGI,OVCAR-5 ovarian,0.145 µM and 0.0183 µM
same,TGI,RXF 393 renal,0.0183 µM
same,TGI,MOLT-4 leukemia,0.0254 µM and 0.0169 µM
same,TGI,RPMI-8226 leukemia,0.00796 µM and 0.0262 µM
same,TGI,MCF7 breast,0.043 µM
same,GI50,MALME-3M melanoma,0.012 µM
same,TGI,MALME-3M melanoma,0.0272 µM and 0.0471 µM
same,TGI,HOP-62 NSCLC,0.0809 µM and 0.0244 µM
same,TGI,HOP-92 NSCLC,0.0397 µM
same,TGI,ACHN renal,0.057 µM and 0.106 µM
same,GI50,SF-268 CNS,0.0167 µM
same,TGI,SF-268 CNS,0.0323 µM and 0.182 µM
same,GI50,UO-31 renal,0.0306 µM
same,TGI,UO-31 renal,0.451 µM and 0.148 µM
same,GI50,NCI/ADR-RES ovarian,1.86 µM
same,TGI,NCI/ADR-RES ovarian,4.65 µM and 24.4 µM
same,TGI,CAKI-1 renal,0.239 µM
same,TGI,M14 melanoma,0.0244 µM
same,TGI,NCI-H23 lung,0.00908 µM
same,TGI,SK-MEL-2 melanoma,0.0299 µM
same,TGI,SN12C renal,0.15 µM
same,GI50,HL-60(TB) leukemia,0.0102 µM
same,TGI,UACC-62 melanoma,0.0374 µM and 0.031 µM
same,GI50,EKVX NSCLC,0.0372 µM
same,TGI,EKVX NSCLC,0.0791 µM and 0.268 µM
same,TGI,A549 NSCLC,0.15 µM and 0.0585 µM
same,TGI,HCC-2998 colon,0.0165 µM
same,TGI,T-47D breast,0.0582 µM and 0.0968 µM
same,TGI,OVCAR-3 ovarian,0.037 µM
same,TGI,SK-MEL-5 melanoma,0.0163 µM
same,TGI,SF-295 CNS,0.0451 µM and 0.173 µM
same,GI50,SK-MEL-28 melanoma,0.0244 µM
same,TGI,SK-MEL-28 melanoma,0.289 µM and 0.0748 µM
same,TGI,PC-3 prostate,0.038 µM
same,GI50,A498 renal,0.0123 µM
same,TGI,A498 renal,0.0328 µM and 0.0432 µM
same,TGI,HCT-15 colon,> 100 µM
same,TGI,SK-OV-3 ovarian,0.394 µM and 0.273 µM
same,GI50,UACC-257 melanoma,0.0194 µM
same,TGI,UACC-257 melanoma,0.17 µM and 0.0458 µM
same,GI50,786-0 renal,0.0108 µM
same,TGI,786-0 renal,0.0325 µM and 0.0704 µM
same,TGI,SW-620 colon,0.209 µM and 0.237 µM
same,TGI,K-562 leukemia,0.0169 µM and 0.0104 µM
same,TGI,COLO 205 colon,0.013 µM and 0.0168 µM
same,TGI,NCI-H460 lung,0.103 µM
same,GI50,MDA-MB-231 breast,0.0107 µM
same,TGI,MDA-MB-231 breast,0.047 µM and 0.114 µM
same,GI50,SNB-75 CNS,0.0161 µM
same,TGI,SNB-75 CNS,0.0974 µM and 0.0452 µM
same,TGI,OVCAR-8 ovarian,0.0555 µM
same,GI50,HS 578T breast,0.0218 µM
same,TGI,HS 578T breast,0.29 µM and 0.113 µM
same,TGI,KM12 colon,0.0409 µM and 0.0284 µM
same,TGI,NCI-H226 lung,0.0903 µM
same,TGI,OVCAR-4 ovarian,0.0236 µM
same,TGI,IGROV1 ovarian,0.0352 µM and 0.134 µM
same,TGI,MDA-N,0.0292 µM
same,TGI,HT29 colon,0.0216 µM
same,GI50,LOX IMVI melanoma,0.0153 µM
same,TGI,LOX IMVI melanoma,0.0256 µM and 0.116 µM
same,GI50,SNB-19 CNS,0.0112 µM
same,TGI,TK-10 renal,0.463 µM and 0.0708 µM
c1cncc(CNCCN2CCNCC2)c1,TGI,U251 CNS,> 100 µM
same,TGI,BT-549 breast,> 100 µM
same,TGI,SF-539 CNS,> 100 µM
same,TGI,MDA-MB-435,> 100 µM
same,TGI,OVCAR-5 ovarian,> 100 µM
same,TGI,RXF 393 renal,> 100 µM
same,TGI,MOLT-4 leukemia,> 100 µM
same,TGI,RPMI-8226 leukemia,> 100 µM
same,TGI,MCF7 breast,> 100 µM
same,TGI,MALME-3M melanoma,> 100 µM
same,TGI,HOP-62 NSCLC,> 100 µM
same,TGI,HOP-92 NSCLC,> 100 µM
same,TGI,ACHN renal,> 100 µM
same,TGI,SF-268 CNS,> 100 µM
same,TGI,UO-31 renal,> 100 µM
same,TGI,NCI/ADR-RES ovarian,> 100 µM
same,TGI,CAKI-1 renal,> 100 µM
same,TGI,M14 melanoma,> 100 µM
same,TGI,NCI-H23 lung,> 100 µM
same,TGI,SK-MEL-2 melanoma,> 100 µM
same,TGI,SN12C renal,> 100 µM
same,TGI,UACC-62 melanoma,> 100 µM
same,TGI,EKVX NSCLC,> 100 µM
same,TGI,A549 NSCLC,> 100 µM
same,TGI,T-47D breast,> 100 µM
same,TGI,OVCAR-3 ovarian,> 100 µM
same,TGI,SK-MEL-5 melanoma,> 100 µM
same,TGI,SF-295 CNS,> 100 µM
same,TGI,SK-MEL-28 melanoma,> 100 µM
same,TGI,PC-3 prostate,> 100 µM
same,TGI,A498 renal,> 100 µM
same,TGI,HCT-15 colon,> 100 µM
same,TGI,SK-OV-3 ovarian,> 100 µM
same,TGI,UACC-257 melanoma,> 100 µM
same,TGI,786-0 renal,> 100 µM
same,TGI,SW-620 colon,> 100 µM
same,TGI,K-562 leukemia,> 100 µM
same,TGI,COLO 205 colon,> 100 µM
same,TGI,NCI-H522 lung,> 100 µM
same,TGI,NCI-H460 lung,> 100 µM
same,TGI,MDA-MB-231 breast,> 100 µM
same,TGI,SNB-75 CNS,> 100 µM
same,TGI,OVCAR-8 ovarian,> 100 µM
same,TGI,HS 578T breast,> 100 µM
same,TGI,KM12 colon,> 100 µM
same,TGI,NCI-H226 lung,> 100 µM
same,TGI,OVCAR-4 ovarian,> 100 µM
same,TGI,IGROV1 ovarian,> 100 µM
same,TGI,MDA-N,> 100 µM
same,TGI,HT29 colon,> 100 µM
same,TGI,LOX IMVI melanoma,> 100 µM
same,TGI,SR leukemia,> 100 µM
same,TGI,SNB-19 CNS,> 100 µM
same,TGI,TK-10 renal,> 100 µM
same,TGI,HCT-116 colon,> 100 µM

# Source: PubChem BioAssay (NCI)
